# In ChEMBL document CHEMBL5725801, “Fused heterocyclic compounds as CaM kinase inhibitors” (2018):
# Experiment: CaMKII Cell-Based Activity: CaMKII activity in neonatal rat ventricular myocytes (NRVM) was measured by monitoring the phosphorylation level of phospholamban using high-content imaging. NRVMs were plated in a clear bottom 384-well plate in medium supplemented with 10% fetal bovine serum (FBS) and incubated at 37° C., 5% CO2 overnight. The medium was changed to a serum-free medium and compounds were dosed to the cells. The cells were incubated at 37° C., 5% CO2 for 4 hours and were then treated with 100 nM ATX-II (Alomone Labs) to activate CaMKII. 10 minutes after the addition of ATX-II, the cells were fixed with 4% formaldehyde followed by permeabilization with 0.1% triton X100. The fixed cells were stained with an anti-phospho-phospholamban primary antibody (Santa Cruz Biotechnology) and an Alexa488-labeled anti-rabbit IgG secondary antibody (Life Technologies Corporation) as well as Hoechst 33342 (Life Technologies Corporation). The cells were imaged using an ArrayScan VTI (Cellomics) and analyzed for cells containing a positive fluorescent signal at 485 nm, reported as % responder. The % responders were plotted against the compound concentration to determine the compounds EC50.
compound,measurement,value
CCN(CC)[C@@H](C)CNC(=O)c1cc(NC2COC2)nc(-c2cnn3ccc(-c4cccs4)nc23)c1,EC50,7290 nM
CCN(CC)[C@@H](C)CNC(=O)c1cc(-c2cnn3ccc(-c4cccs4)nc23)nc(N2CC(C)(OC)C2)c1,EC50,8.28 nM
CCN(CC)c1cc(C(=O)NC[C@H](C)N(CC)CC)cc(-c2cnn3ccc(-c4cccs4)nc23)n1,EC50,40.4 nM
CCN(CC)[C@@H](C)CNC(=O)c1cc(-c2cnn3ccc(-c4cccs4)nc23)nc(N2CC(O)(CC)C2)c1,EC50,24.7 nM
CCN(CC)[C@@H](C)CNC(=O)c1cc(-c2cnn3ccc(-c4cccs4)nc23)nc(N2CC(NC(=O)N(C)C)C2)c1,EC50,22.6 nM
CCN(CC)[C@@H](C)CNC(=O)c1cc(-c2cnn3ccc(-c4cccs4)nc23)nc(N2CCC[C@@H]2C(N)=O)c1,EC50,166 nM
CCN(CC)[C@@H](C)CNC(=O)c1cc(NC2CCOCC2)nc(-c2cnn3ccc(-c4cccs4)nc23)c1,EC50,24.2 nM
CCN(CC)[C@@H](C)CNC(=O)c1cc(-c2cnn3ccc(-c4ccncc4)nc23)nc(N2CC(OC)C2)c1,EC50,607 nM
CCN(CC)[C@@H](C)CNC(=O)c1cc(-c2cnn3ccc(-c4cccs4)nc23)nc(N2CC(NS(C)(=O)=O)C2)c1,EC50,26.4 nM
CCN(CC)[C@@H](C)CNC(=O)c1cc(-c2cnn3ccc(-c4cccs4)nc23)nc(N2CCC[C@@H]2COC)c1,EC50,260 nM
CCN(CC)[C@@H](C)CNC(=O)c1cc(-c2cnn3ccc(-c4cccs4)nc23)nc(N2CC[C@H]2C(=O)NCC2CC2)c1,EC50,33.4 nM
CCN(CC)[C@@H](C)CNC(=O)c1cc(-c2cnn3ccc(-c4cccs4)nc23)nc(N2CCC[C@@H]2CO)c1,EC50,45.9 nM
CCN(CC)[C@@H](C)CNC(=O)c1cc(-c2cnn3ccc(-c4cccs4)nc23)nc(N2CCC3(COC3)C2)c1,EC50,18.2 nM
CCN(CC)[C@@H](C)CNC(=O)c1cc(-c2cnn3ccc(-c4cccs4)nc23)nc(N2CC(F)(F)C(F)(F)C2)c1,EC50,61.5 nM
CCN(CC)[C@@H](C)CNC(=O)c1cc(-c2cnn3ccc(-c4cccs4)nc23)nc(N2CCN(C(C)=O)CC2)c1,EC50,43.6 nM
CCN(CC)[C@@H](C)CNC(=O)c1cc(NCC2(C)COC2)nc(-c2cnn3ccc(-c4cccs4)nc23)c1,EC50,23.4 nM
CCN(CC)[C@@H](C)CNC(=O)c1cc(-c2cnn3ccc(-c4cccs4)nc23)nc(N2CC(CO)C2)c1,EC50,21.6 nM
CCN(CC)[C@@H](C)CNC(=O)c1cc(NCC(=O)NC)nc(-c2cnn3ccc(-c4cccs4)nc23)c1,EC50,108 nM
CCN(CC)[C@@H](C)CNC(=O)c1cc(-c2cnn3ccc(-c4cccs4)nc23)nc(N2C[C@H](O)[C@@H](O)C2)c1,EC50,250 nM
CCN(CC)[C@@H](C)CNC(=O)c1cc(N[C@H](C)C(=O)NC)nc(-c2cnn3ccc(-c4cccs4)nc23)c1,EC50,147 nM
CCN(CC)[C@@H](C)CNC(=O)c1cc(-c2cnn3ccc(-c4cccs4)nc23)nc(N2CC[C@H]2C(=O)N(C)C)c1,EC50,10.7 nM
CCN(CC)[C@@H](C)CNC(=O)c1cc(-c2cnn3ccc(-c4cccs4)nc23)nc(N2CC(NC(=O)C3CC3)C2)c1,EC50,3.75 nM
CCN1CCC[C@H]1CNC(=O)c1cc(-c2cnn3ccc(-c4cccs4)nc23)nc(N2CC(OC)C2)c1,EC50,181 nM
CCN(CC)[C@@H](C)CNC(=O)c1cc(Nc2ncc[nH]2)nc(-c2cnn3ccc(-c4cccs4)nc23)c1,EC50,247 nM
CCN(CC)CCNC(=O)c1cc(-c2cnn3ccc(-c4cccs4)nc23)nc(N2CC(C)(O)C2)c1,EC50,53.7 nM
COC1CN(c2cc(C(=O)NC[C@@H]3CCCN3C)cc(-c3cnn4ccc(-c5cccs5)nc34)n2)C1,EC50,326 nM
CCN(CC)[C@@H](C)CNC(=O)c1cc(-c2cnn3ccc(-c4cccs4)nc23)nc(N2CCC23COC3)c1,EC50,54.5 nM
CCN(CC)CCNC(=O)c1cc(NCCO)nc(-c2cnn3ccc(-c4cccs4)nc23)c1,EC50,136 nM
CCN(CC)[C@@H](C)CNC(=O)c1cc(-c2cnn3ccc(-c4cccs4)nc23)nc(N2CCC(F)(F)C2)c1,EC50,28.1 nM
CCN(CC)[C@@H](C)CNC(=O)c1cc(N[C@H]2CCOC2)nc(-c2cnn3ccc(-c4cccs4)nc23)c1,EC50,29.9 nM
CCN(CC)[C@@H](C)CNC(=O)c1cc(-c2cnn3ccc(-c4cccs4)nc23)nc(N2CCC[C@H]2CO)c1,EC50,112 nM
CCN(CC)[C@@H](C)CNC(=O)c1cc(NCCN2CC(F)(F)C2)nc(-c2cnn3ccc(-c4cccs4)nc23)c1,EC50,45.6 nM
CCN(CC)[C@@H](C)CNC(=O)c1cc(-c2cnn3ccc(-c4cccs4)nc23)nc(N2CCO[C@H](CO)C2)c1,EC50,43.5 nM
CCN(CC)[C@@H](C)CNC(=O)c1cc(NCCCO)nc(-c2cnn3ccc(-c4cccs4)nc23)c1,EC50,49.4 nM
COC1CN(c2cc(C(=O)NC[C@@H]3CCCN3)cc(-c3cnn4ccc(-c5cccs5)nc34)n2)C1,EC50,261 nM
CCN(CC)[C@@H](C)CNC(=O)c1cc(-c2cnn3ccc(-c4cccs4)nc23)nc(N2CCC(C(N)=O)CC2)c1,EC50,115 nM
CCN(CC)[C@@H](C)CNC(=O)c1cc(NCCN2CCOCC2)nc(-c2cnn3ccc(-c4cccs4)nc23)c1,EC50,27.5 nM
CCN(CC)[C@@H](C)CNC(=O)c1cc(NCc2ncc[nH]2)nc(-c2cnn3ccc(-c4cccs4)nc23)c1,EC50,148 nM
CCN(CC)[C@@H](C)CNC(=O)c1cc(-c2cnn3ccc(-c4cccs4)nc23)nc(N2CCC(OC)CC2)c1,EC50,110 nM
CCN(CC)[C@@H](C)CNC(=O)c1cc(NCC(N)=O)nc(-c2cnn3ccc(-c4cccs4)nc23)c1,EC50,306 nM
CCN(CC)[C@@H](C)CNC(=O)c1cc(NCc2cc[nH]n2)nc(-c2cnn3ccc(-c4cccs4)nc23)c1,EC50,54.3 nM
CCN(CC)[C@@H](C)CNC(=O)c1cc(N[C@H](C)CO)nc(-c2cnn3ccc(-c4cccs4)nc23)c1,EC50,75.2 nM
CCN(CC)[C@@H](C)CNC(=O)c1cc(-c2cnn3ccc(-c4cccs4)nc23)nc(N2CC(NC)C2)c1,EC50,69.9 nM
CCN[C@@H](C)CNC(=O)c1cc(-c2cnn3ccc(-c4cccs4)nc23)nc(N2CC(C)(O)C2)c1,EC50,368 nM
CCN(CC)[C@@H](C)CNC(=O)c1cc(N[C@@H](C)CO)nc(-c2cnn3ccc(-c4cccs4)nc23)c1,EC50,34 nM
CCN(CC)[C@@H](C)CNC(=O)c1cc(-c2cnn3ccc(-c4cccs4)nc23)nc(N2CC(C(N)=O)C2)c1,EC50,71.4 nM
CCN(CC)[C@@H](C)CNC(=O)c1cc(-c2cnn3ccc(-c4cccs4)nc23)nc(N2CC(CO)(CO)C2)c1,EC50,107 nM
CCN(CC)[C@@H](C)CNC(=O)c1cc(NC2CC2)nc(-c2cnn3ccc(-c4cccs4)nc23)c1,EC50,30.6 nM
CCN(CC)[C@@H](C)CNC(=O)c1cc(NCC2COC2)nc(-c2cnn3ccc(-c4cccs4)nc23)c1,EC50,13600 nM
CCN(CC)[C@@H](C)CNC(=O)c1cc(-c2cnn3ccc(-c4cccs4)nc23)nc(N2CCC[C@H]2C(N)=O)c1,EC50,259 nM
CCN(CC)[C@@H](C)CNC(=O)c1cc(NCCC(C)(C)O)nc(-c2cnn3ccc(-c4cccs4)nc23)c1,EC50,22.3 nM
CCN(CC)[C@@H](C)CNC(=O)c1cc(NCCS(N)(=O)=O)nc(-c2cnn3ccc(-c4cccs4)nc23)c1,EC50,232 nM
CCN(CC)C(=O)[C@@H]1CCN1c1cc(C(=O)NC[C@H](C)N(CC)CC)cc(-c2cnn3ccc(-c4cccs4)nc23)n1,EC50,25.2 nM
CCN(CC)[C@@H](C)CNC(=O)c1cc(-c2cnn3ccc(-c4cccs4)nc23)nc(N2CC[C@H]2COC)c1,EC50,78.4 nM
CCN(CC)[C@@H](C)CNC(=O)c1cc(-c2cnn3ccc(-c4cccs4)nc23)nc(N2C[C@@H]3C[C@H]2CO3)c1,EC50,514 nM
CCN(CC)[C@@H](C)CNC(=O)c1cc(-c2cnn3ccc(-c4cccs4)nc23)nc(N2CCNCC2)c1,EC50,67 nM
CCN(CC)CCNC(=O)c1cc(-c2cnn3ccc(-c4cccs4)nc23)nc(N2CC(OC)C2)c1,EC50,90.9 nM
CCN(CC)[C@@H](C)CNC(=O)c1cc(N[C@H](C)C(N)=O)nc(-c2cnn3ccc(-c4cccs4)nc23)c1,EC50,355 nM
CCN(CC)[C@@H](C)CNC(=O)c1cc(-c2cnn3ccc(-c4cccs4)nc23)nc(N2CC(O)(C3CC3)C2)c1,EC50,56.7 nM
CCN(CC)[C@@H](C)CNC(=O)c1cc(NCCCOC)nc(-c2cnn3ccc(-c4cccs4)nc23)c1,EC50,31.9 nM
CCN(CC)[C@@H](C)CNC(=O)c1cc(Nc2cn[nH]c2)nc(-c2cnn3ccc(-c4cccs4)nc23)c1,EC50,9.87 nM
CCN(CC)[C@@H](C)CNC(=O)c1cc(-c2cnn3ccc(-c4cccs4)nc23)nc(N2CC(O)(C(F)(F)F)C2)c1,EC50,26.5 nM
CCNC(=O)[C@@H]1CCN1c1cc(C(=O)NC[C@H](C)N(CC)CC)cc(-c2cnn3ccc(-c4cccs4)nc23)n1,EC50,28.5 nM
CCN(CC)[C@@H](C)CNC(=O)c1cc(NC[C@@H](C)O)nc(-c2cnn3ccc(-c4cccs4)nc23)c1,EC50,32.7 nM
CCN(CC)[C@@H](C)CNC(=O)c1cc(-c2cnn3ccc(-c4cccs4)nc23)nc(N2CC(C(C)(C)O)C2)c1,EC50,57.2 nM
CCN(CC)[C@@H](C)CNC(=O)c1cc(-c2cnn3ccc(-c4cccs4)nc23)nc(N2CC(C)(O)C2)c1,EC50,21.4 nM
CCNc1cc(C(=O)NC[C@H](C)N(CC)CC)cc(-c2cnn3ccc(-c4cccs4)nc23)n1,EC50,97.8 nM
CCN(CC)[C@@H](C)CNC(=O)c1cc(-c2cnn3ccc(-c4cccs4)nc23)nc(N2CC(N(C)C)C2)c1,EC50,168 nM
CCN(CC)[C@@H](C)CNC(=O)c1cc(-c2cnn3ccc(-c4cccs4)nc23)nc(N2CC[C@H]2C(=O)NC2CC2)c1,EC50,28 nM
CCN(CC)[C@@H](C)CNC(=O)c1cc(NC[C@H](C)O)nc(-c2cnn3ccc(-c4cccs4)nc23)c1,EC50,27.1 nM
CCN(CC)[C@@H](C)CNC(=O)c1cc(-c2cnn3ccc(-c4cccs4)nc23)nc(N2CC(NC(C)=O)C2)c1,EC50,28.4 nM
CCN(CC)[C@@H](C)CNC(=O)c1cc(N[C@@H](C)C(N)=O)nc(-c2cnn3ccc(-c4cccs4)nc23)c1,EC50,148 nM
CCN(CC)[C@@H](C)CNC(=O)c1cc(-c2cnn3ccc(-c4cccs4)nc23)nc(N2CC[C@@H]2COC)c1,EC50,80.1 nM
CCN(CC)[C@@H](C)CNC(=O)c1cc(-c2cnn3ccc(-c4cccs4)nc23)nc(N2CC[C@H]2C(=O)NCCF)c1,EC50,53 nM
CCN(CC)[C@@H](C)CNC(=O)c1cc(N[C@@H](C)C(=O)NC)nc(-c2cnn3ccc(-c4cccs4)nc23)c1,EC50,129 nM
